What is called TGI is the concentration at which net growth stops. As a reminder, the GI50 is the concentration that inhibits growth by half.

These results are taken from PubChem BioAssay (NCI).

Test systems include NCI-H23 lung; RXF 393 renal; SNB-75 CNS; SNB-19 CNS; RPMI-8226 leukemia; SK-MEL-5 melanoma; TK-10 renal; SF-268 CNS; MOLT-4 leukemia; HCT-15 colon.
Common to all, as to test: DTP human tumour cell line panel, 48 h

SMILES strings stand for the structures. “And” between values parts separate entries of the source, which are not always exact repeats. Identical values can stand only once.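 Values below derive from 48-hour exposures of cells grown in 96-well plates, with endpoints linearly interpolated between the two concentrations bracketing the appropriate inhibition level. At the GI50, growth is halved. TGI: concentration producing complete growth inhibition.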

As for `O=C1c2ccccc2C(=O)N1CCn1ccc(NC(c2ccccc2)(c2ccccc2)c2ccccc2)nc1=O`, the TGI came out at 60.2 µM with NCI-H23 lung; 35.5 µM in the assay on RXF 393 renal; 74 µM with SNB-75 CNS; 86.1 µM in the assay with SNB-19 CNS; 51.3 µM in the assay on RPMI-8226 leukemia; 31.2 µM with SK-MEL-5 melanoma. In addition, the concentration for total growth inhibition (TGI) in the assay on TK-10 renal worked out at 69.5 µM; in the assay on SF-268 CNS, 45.3 µM; with MOLT-4 leukemia, 43 µM; in the assay on HCT-15 colon, 62.6 µM.
`CSC1=Nc2c(c(C)c(C)n2COC(CO)CO)C2=NC(=O)C(C)N12` (stereo not drawn): the GI50 in the assay on NCI-H23 lung was greater than 100 µM; in the assay with RXF 393 renal, greater than 100 µM; in the assay on SNB-75 CNS, 26.3 µM; with SNB-19 CNS, greater than 100 µM; in the assay on RPMI-8226 leukemia it was greater than 100 µM; in the assay on SK-MEL-5 melanoma, greater than 100 µM. The GI50 in the assay with TK-10 renal, in the assay on SF-268 CNS, with MOLT-4 leukemia and in the assay with HCT-15 colon was greater than 100 µM throughout. In addition, the TGI in the assay with NCI-H23 lung, in the assay on RXF 393 renal, with SNB-75 CNS, in the assay on SNB-19 CNS, with RPMI-8226 leukemia and with SK-MEL-5 melanoma was greater than 100 µM in each case. Moreover, the TGI in the assay with TK-10 renal, with SF-268 CNS, in the assay with MOLT-4 leukemia and in the assay with HCT-15 colon was greater than 100 µM each time.
For the compound `CCOC(=O)c1cnc2c(ccc3[nH]n(C)nc32)c1=O`, the TGI with NCI-H23 lung was greater than 100 µM; in the assay on RXF 393 renal, 95.5 µM; with SNB-75 CNS, greater than 100 µM; in the assay on SNB-19 CNS it was greater than 100 µM; in the assay on RPMI-8226 leukemia, 67.5 µM; in the assay with SK-MEL-5 melanoma, greater than 100 µM. In addition, the TGI in the assay on TK-10 renal, in the assay with SF-268 CNS, in the assay with MOLT-4 leukemia and in the assay on HCT-15 colon was greater than 100 µM each time.
For the compound `CC1(C)N=C(N)N=C(N)N1c1ccc(CCCCc2ccc(Cl)cc2S(=O)(=O)F)c(Cl)c1`, the GI50 in the assay with NCI-H23 lung is 0.537 µM; with RXF 393 renal it was 1.26 µM; in the assay with SNB-75 CNS, 1.39 µM; in the assay on SNB-19 CNS, 0.76 µM; with RPMI-8226 leukemia, 0.562 µM; with SK-MEL-5 melanoma, 0.552 µM. Further, the GI50 with TK-10 renal was 5.82 µM; with SF-268 CNS, 0.493 µM; in the assay on MOLT-4 leukemia it was 0.436 µM; in the assay with HCT-15 colon it was 0.464 µM. The TGI in the assay on NCI-H23 lung is 18.5 µM; in the assay with RXF 393 renal, 20.4 µM; in the assay on SNB-75 CNS it was 23 µM; in the assay with SNB-19 CNS, 21.3 µM; with RPMI-8226 leukemia, 13.2 µM; in the assay with SK-MEL-5 melanoma, 12.6 µM. The concentration for total growth inhibition (TGI) is 25.7 µM with TK-10 renal, 17.7 µM with SF-268 CNS, 15.5 µM with MOLT-4 leukemia and greater than 51.3 µM in the assay on HCT-15 colon.
With `S=C(Nc1ccc(Cl)cc1)Nc1ccc(-c2nc3ccccc3s2)cc1`, the GI50 in the assay with NCI-H23 lung was 14.1 µM; in the assay with RXF 393 renal it was 16.6 µM; with SNB-75 CNS, 13.8 µM; with SNB-19 CNS, 19 µM; in the assay with RPMI-8226 leukemia, 20.9 µM; with SK-MEL-5 melanoma, 11 µM. In addition, the results for the GI50 in the assay on TK-10 renal, with SF-268 CNS and in the assay with HCT-15 colon were 15.1 µM, 13.8 µM and 23.5 µM, respectively. Besides, the TGI in the assay on NCI-H23 lung is 27.3 µM; in the assay with RXF 393 renal, 37.1 µM; in the assay on SNB-75 CNS, 35.5 µM; in the assay with SNB-19 CNS, 69.6 µM; in the assay on RPMI-8226 leukemia, 64.5 µM; with SK-MEL-5 melanoma, 22.9 µM. Further, the TGI is 44.5 µM in the assay on TK-10 renal, 32 µM with SF-268 CNS, greater than 100 µM in the assay on MOLT-4 leukemia and greater than 100 µM in the assay on HCT-15 colon.
With `CC1(C)COC(C2(C)C(=O)C=C(c3ccccc3)c3ccccc32)=N1` (stereo not drawn), the TGI in the assay with NCI-H23 lung, with RXF 393 renal, in the assay on SNB-75 CNS, with SNB-19 CNS, in the assay on RPMI-8226 leukemia and in the assay on SK-MEL-5 melanoma was greater than 100 µM throughout. Also, the TGI in the assay on TK-10 renal, in the assay on SF-268 CNS, in the assay with MOLT-4 leukemia and in the assay on HCT-15 colon was greater than 100 µM throughout.
For `O=C(Nc1ccc2ncccc2c1)Nc1ccc2ncccc2c1`, the TGI in the assay with NCI-H23 lung, in the assay on RXF 393 renal, in the assay on SNB-75 CNS, in the assay on SNB-19 CNS, in the assay on RPMI-8226 leukemia and in the assay with SK-MEL-5 melanoma was greater than 100 µM throughout. In addition, the TGI in the assay on TK-10 renal, in the assay with SF-268 CNS, with MOLT-4 leukemia and in the assay with HCT-15 colon was greater than 100 µM throughout.
With `O=[N+]([O-])c1ccc2[nH]c(=S)[nH]c(=S)c2c1`, the TGI in the assay on NCI-H23 lung, with RXF 393 renal, in the assay with SNB-75 CNS, in the assay with SNB-19 CNS, in the assay with RPMI-8226 leukemia and with SK-MEL-5 melanoma was greater than 100 µM in each case. The TGI in the assay with TK-10 renal, in the assay with SF-268 CNS, in the assay on MOLT-4 leukemia and in the assay on HCT-15 colon was greater than 100 µM throughout.
For `OC(CC1SCCCS1)c1ccccc1` (stereo not drawn), the TGI with NCI-H23 lung, with RXF 393 renal, with SNB-75 CNS, with SNB-19 CNS, in the assay with RPMI-8226 leukemia and with SK-MEL-5 melanoma was greater than 100 µM in each case. Further, the TGI in the assay on TK-10 renal, with SF-268 CNS, in the assay with MOLT-4 leukemia and in the assay on HCT-15 colon was greater than 100 µM in each case.
`CN1CCN(C2CCN(C(=O)Nc3cc(Oc4ccc(NC(=O)C5(C(=O)Nc6ccc(F)cc6)CC5)c(F)c4)ccn3)CC2)CC1`: the GI50 was 1.23 µM in the assay with NCI-H23 lung; 0.918 µM in the assay with RXF 393 renal; 0.365 µM with SNB-75 CNS; 0.354 µM with SNB-19 CNS; 1.62 µM in the assay with RPMI-8226 leukemia; 2.43 µM in the assay with SK-MEL-5 melanoma. Further, the GI50 is 0.365 µM in the assay on TK-10 renal, 0.803 µM in the assay on MOLT-4 leukemia and 2.04 µM in the assay with HCT-15 colon. Also, the TGI in the assay on NCI-H23 lung is greater than 3.42 µM; in the assay on RXF 393 renal it was greater than 2.4 µM; in the assay with SNB-75 CNS it was greater than 1.97 µM; in the assay on SNB-19 CNS, greater than 10 µM; in the assay with RPMI-8226 leukemia, greater than 2.63 µM; with SK-MEL-5 melanoma, 6.36 µM. In addition, the TGI is greater than 10 µM with TK-10 renal, greater than 2.96 µM in the assay on SF-268 CNS, greater than 2.7 µM in the assay with MOLT-4 leukemia and greater than 10 µM in the assay with HCT-15 colon.
In the case of `CCN1CCN(C(=O)[C@@]2(C)CC[C@]3(C)CC[C@]4(C)C(=CC(=O)[C@@H]5[C@@]6(C)CC[C@H](OC7C[C@@H](O)[C@@H](O)C(C)O7)C(C)(C)[C@@H]6CC[C@]54C)[C@@H]3C2)CC1` (stereo partly drawn), the GI50 is 2.36 µM in the assay with NCI-H23 lung; 3.73 µM with RXF 393 renal; 6.39 µM with SNB-75 CNS; 2.26 µM in the assay with SNB-19 CNS; 1.09 µM in the assay with RPMI-8226 leukemia; 1.56 µM in the assay with SK-MEL-5 melanoma. The GI50 in the assay on TK-10 renal is 0.806 µM; in the assay with SF-268 CNS, 1.6 µM; in the assay on MOLT-4 leukemia, 1.18 µM; in the assay with HCT-15 colon, 2.21 µM. Besides, the TGI in the assay on NCI-H23 lung was found to be 9.57 µM; in the assay with RXF 393 renal, 11.5 µM; with SNB-75 CNS it was 12.8 µM; with SNB-19 CNS, 8.57 µM; in the assay on RPMI-8226 leukemia it was 2.52 µM; in the assay with SK-MEL-5 melanoma it was 4.6 µM. Further, the TGI in the assay with TK-10 renal was 1.9 µM; in the assay with SF-268 CNS, 6.18 µM; with MOLT-4 leukemia it was 3 µM; in the assay with HCT-15 colon, 8.67 µM.
As to `Clc1ccc2c(c1)[nH]c1c2nc2ccccn21`, the concentration for total growth inhibition (TGI) in the assay with NCI-H23 lung was 72.3 µM and 44.9 µM; in the assay on RXF 393 renal, 68.3 µM and 24.2 µM; in the assay on SNB-75 CNS, > 100 µM and 37.2 µM; in the assay on SNB-19 CNS it was 58.6 µM and 35.3 µM; in the assay with RPMI-8226 leukemia it was 64.7 µM and 54.5 µM; in the assay on SK-MEL-5 melanoma, > 100 µM and 30.2 µM. Moreover, the TGI is 31.2 µM with TK-10 renal; 87.7 µM and 37.1 µM in the assay on SF-268 CNS; 76.8 µM and 42.7 µM in the assay on MOLT-4 leukemia; > 100 µM and 38.5 µM in the assay with HCT-15 colon. For the same compound, the GI50 was 26.6 µM and 11.7 µM in the assay with RXF 393 renal; 32.7 µM and 14.7 µM in the assay on SNB-75 CNS; 39.9 µM and 16.4 µM in the assay on SK-MEL-5 melanoma; 28.4 µM and 5.44 µM with MOLT-4 leukemia; 40.8 µM and 20 µM in the assay on HCT-15 colon.
For the compound `c1ccc(-c2nnc(-c3ccccn3)s2)nc1`, the GI50 in the assay on NCI-H23 lung was greater than 100 µM; in the assay with RXF 393 renal, greater than 100 µM; with SNB-75 CNS, 72.9 µM; with SNB-19 CNS, greater than 100 µM; in the assay on RPMI-8226 leukemia it was greater than 100 µM; in the assay on SK-MEL-5 melanoma, greater than 100 µM. Moreover, the GI50 was greater than 100 µM in the assay on TK-10 renal, greater than 100 µM in the assay with SF-268 CNS, greater than 100 µM in the assay on MOLT-4 leukemia and 83.7 µM with HCT-15 colon. For the same compound, the TGI in the assay with NCI-H23 lung, with RXF 393 renal, in the assay on SNB-75 CNS, with SNB-19 CNS, with RPMI-8226 leukemia and with SK-MEL-5 melanoma was greater than 100 µM throughout. Besides, the TGI in the assay with TK-10 renal, in the assay with SF-268 CNS, with MOLT-4 leukemia and in the assay on HCT-15 colon was greater than 100 µM each time.
Take `O=[N+]([O-])c1cccc(C2=NN(c3ccccc3)C[N+](c3ccc(Br)cc3)=N2)c1`: the TGI in the assay with NCI-H23 lung, in the assay on RXF 393 renal, in the assay on SNB-75 CNS, in the assay with SNB-19 CNS, in the assay on RPMI-8226 leukemia and in the assay with SK-MEL-5 melanoma was greater than 100 µM each time. In addition, the TGI in the assay on TK-10 renal, in the assay with SF-268 CNS, in the assay on MOLT-4 leukemia and with HCT-15 colon was greater than 100 µM throughout.
